Reference: patent US12083111B2, “Use of hexokinase 2/mitochondria-detaching compounds for activating immune responses” (Vidac Pharma Ltd., priority 2016, dated 2024)

Key:
[1] = tested on: macrophages in CT26 tumors; assay: FACS of CT26 tumors for macrophage markers MHCII and CD206 (M2 to M1 shift); format: in vivo, mouse; details: 150 mg/kg, day 20
Protocol: (§1) FIG. 6B. Formula C administration shifts macrophages in vivo from pro-tumor (M2) macrophages to antitumor (M1) macrophages. CT26 tumors from Formula C or vehicle-treated Balb/C mice with CT26 mouse colorectal cancer was analyzed for MHCII marker by FACS. Dark color: Vehicle treated CT26 tumors from Balb/C mice (day 20). Light color: Formula C (150 mg/kg) treated CT26 tumors from Balb/C mice (day 20).
as §1, with “6C.” for “6B.”, “CD206.” for “MHCII marker by FACS.”
(§2) Colorectal cancer was induced in Balb/C mice using CT26 mouse colorectal cancer cells. Formula C was administered SC with esterase-inhibitor BNPP (IP).
Pro-tumor M2 Macrophages are characterized by low MHCII and high CD206. In contrast, anti-tumor M1 Macrophages are characterized by high MHCII and low CD206. CT26 tumors from Formula C or vehicle-treated Balb/C mice with CT26 mouse colorectal cancer were analyzed for MHCII (FIG. 6B) and CD206 (FIG. 6C) levels 20 days after treatment started.

[2] = tested on: primary Balb/C mouse splenocytes (CD8+ T cells); assay: Activated primary splenocytes: FACS for CD44, CD62L and live cells; format: cell-based
Protocol: FIGS. 7A-F. Formula C administration shifts effector CD8+ T cells to central memory cells. Primary Balb/C mouse splenocytes were grown in culture and activated by anti-CD3e and anti CD28 antibodies to shift them towards CD8+/CD4+ phenotype. Cells were then treated with Formula C (FIG. 7E), 2-DG (2-deoxyglucose, positive control) (FIG. 7C), or vehicle (FIG. 7B, FIG. 7D) for 24 hours followed by FACS analysis for CD44 and CD62L.
Spleens from the 2 BALB/C female mice (8.5 weeks old) were injected with cold PBS in a […] to obtain cell suspension, using a 27 g needle. The spleens were then crushed using the back of a 10 ml syringe. The suspension was passed through a 21 g needle and filtered using a 70 um cells strainer. The plate was washed once with 10 ml PBS and the solution was filtered as well. Cells were centrifuged for 10 min at 1200 rpm, 4° C. The pellet was broken on the grill and re-suspended in 10 ml AKC X1 lysis buffer (1:10 dilution of X10 stock in Ultra-Pure Water). After 5 min on ice, PBS was added to a final volume of 50 ml, and cells were centrifuged for 10 min at 1200 rpm, 4° C. Pellet was re-suspended in 10 ml PBS and washed twice. After washing, pellet was re-suspended in 20 ml DCs medium and passed through a 40 μm cell strainer. Cells were suspended to 3×10^6 ml with DC medium and supplemented with 1:1000 (100 Units/ml) hIL-2 and 1:1000 (1 ug/ml) anti-CD28.
The cells were seeded 1 ml/well in a 24-well plate precoated with 5 μg/ml 250 μl/well of anti-CD3e and carefully washed twice with 0.5 ml PBS (−/−), cells were added on the side of the wells to avoid washing away the antibody.
Splenocytes were plated at 10^6 cells/well in a 24-well plate coated with 5 μg/ml anti-CD3e with soluble anti CD28 2 μg/ml and IL-2 100 units/ml. […]
On the following day, cells were stained with: ghost dye 1 ul/sample (live/dead), and the following antibodies: CD62L, CD44, CD3, CD4, CD8 and analyzed by fluorescence-activated cell sorting (FACS).

[3] = tested on: B16-F10 melanoma mice; assay: Ear inflammation score in the mouse B16-F10 melanoma model; format: in vivo; details: scale 0-4, topical
Protocol: (§3) Female C57Bl/6 mice at 8 weeks of age were purchased from Harlan, Jerusalem, Israel. The animals were housed (6 or 7/cage) under controlled conditions (temperature, light, humidity) and given food and water ad libitum. After 14 days of acclimatization, the animals were inoculated with 0.25*10^6 B16-F10 melanoma cells/mouse in 30 μl PBS under the skin of the right ear of each mouse.
(§4) The mice were inoculated with B16-F10 melanoma cells and divided randomly into […] (9 mice each): a) B16-F10 inoculated, untreated; and b) B16-F10 inoculated, Formula C (50% v/v in olive oil) treated
(§5) The treatment was initiated when the tumors reached the target volume of approximately 1 mm^3. Drug was topically administered to the area of the tumor daily for 18 days.
Inflammation was graded on a scale of 0-4 as: 0 (absence of inflammation), 1 (redness), 2 (tissue inflammation), 3 (pronounced tissue inflammation), and 4 (damage to the ear).

[4] = tested on: CT26 mouse colorectal cancer cells; assay: CT26 syngeneic colorectal cancer model: tumor volume; format: in vivo; details: Balb/C mice, SC with esterase-inhibitor BNPP (IP)
Protocol: as §2

[5] = tested on: B16-F10 melanoma cells; assay: Topical treatment in the mouse B16-F10 melanoma model: tumor volume; format: in vivo; details: 50% v/v in olive oil
Protocol: Mouse melanoma (B16-F10) cells were used. Mouse B16-F10 melanoma cells were maintained in DMEM. Media was supplemented with 10% heat-inactivated FCS, penicillin (100 U/ml), streptomycin (100 μg/ml), Sodium pyruvate (2 mM), and L-glutamine (4 mM). Confluent cultures were washed with PBS, detached with trypsin (0.25%), centrifuged, and subcultured in 96-well microtiter test plates.
as §3, §4, §5

[6] = tested on: mouse bone marrow-derived macrophages (BMDM); assay: IL-1β secretion and viability in primary bone marrow-derived macrophages; format: cell-based; details: BALB/C or C57BL BMDM
Protocol: BALB/C mouse bone marrow-derived macrophages (BMDM) or C57BL mouse bone marrow-derived macrophages were seeded at 3×10^4 cells/well in 96 well plates. The following day, cells were stimulated with interferon-gamma (IFNγ) overnight 50 ng/ml. Then Ultra-pure LPS (100 ng/ml) was added for 4 hours, followed by compound treatment for overnight, except for ATP (all compounds were added on top); ATP for 40 min. ELISA was performed on supernatants for mouse IL-1β detection. ATP and 2-DG were used as positive controls. No signal without IFN-γ even when seeded at 100,000 cells per well.

[7] = tested on: skin of UVB-exposed SKH-1 mice; assay: UVB-exposed SKH-1 mouse AK/cSCC model: histology and IHC of immune cells in skin; format: in vivo
Protocol: The formulation ingredients for vehicle, 2.5%, and 5% Formula C ointment consisted of: 32% Gelucire44/14® (Gattefossé, Saint-Priest, France), and 68% combined Labrasol® (Gattefossé, Saint-Priest, France) with corresponding amount of Formula C (w/w). New ointments were prepared every 2 weeks. The 40% topical solution was prepared just prior to use by mixing (w/w) 60% propylene glycol (Sigma, St. Louis, MO, USA) with 40% Formula C.
UVB-induced skin damage was adopted from previous publications. Forty-eight SKH-1 hairless female mice were chronically exposed to 1.25 times the Minimal Erythemal Dose (MED) of UVB radiation. Lamp VL-6.M was used, irradiating at 312 nm with an intensity of 0.89 mW/cm2 (validated on Day 44) at a distance of 15 cm. Determination of UVB irradiation Minimal Erythemal Dose (MED) was performed prior to the beginning of the study. Animals were UVB irradiated for different duration (starting at 30 sec) and the presence of erythema was recorded 24 and 48 hours later. 1.25 times the MED of UVB irradiation was established to be equal to an exposure time of 5 min. Mice were UVB irradiated for 4-5 min at each irradiation session during the 16 weeks of pre-treatment disease induction. Prior to every irradiation session, the lamp was turned on for 5 min to ensure it reaches its maximal intensity. The irradiation schedule was five times a week for two weeks, one week off, and then three times a week through week 16. By that time, more than 60% of the animals had developed at least one SCC lesion. Three days after the final irradiation dose, the mice were randomly assigned to 1 of 4 treatment groups (N=12 mice/group), with similar tumor burden distribution between groups, and a 50-day treatment phase started. The 6 cm^2 (2×3 cm) treatment area was marked on the back of the mice with a black eight points rectangle tattoo. Five spare mice with the highest tumor burden were excluded from the main study. Treatment groups included: vehicle, 2.5% or 5% Formula C ointment, 50 μl of which was applied once-daily for 50 days, or 50 μl of 40% Formula C topical solution applied once-daily for the first 5 days of every three-week cycle (total of three treatment cycles). Following administration, each animal was placed in individual cage without bedding for 1.5 hours, until the ointment was absorbed.
Histopathological analysis and IHC was performed according to standard protocols. Primary antibodies used: Rabbit anti-CD3 (SP7), rabbit anti-F4/80 (SB-M3072, SB-M4152, Nordic Biosite, Täby, Sweden), mouse anti-Langerin/CD207 (DDX0361, Dendritics, Lyon, France). A polymer system was used as a secondary antibody (KDB-10046 and KDB-10007, Nordic Biosite, Täby, Sweden). Semi-quantitative analysis was done in a blinded manner by a single experienced pathologist scoring ×40 high power fields, 7 different fields per slide.
Statistical analysis was carried out using Graphpad Prism version 5.03 (Graphpad Software, San Diego, CA).

[8] = tested on: THP-1 human monocytes differentiated to macrophages; assay: IL-1β secretion from LPS-stimulated THP-1-derived macrophages (ELISA); format: cell-based; details: PMA-differentiated, ELISA of culture medium
Protocol: FIG. 4. Formula C stimulates IL-1β secretion in activated human macrophages in vitro. THP-1 human monocytes were differentiated to mature macrophages and stimulated with LPS (Lipopolysaccharide) followed by Formula C treatment. Secreted IL-1β was analyzed in the culture medium by ELISA.
The human monocyte cell line, THP-1, was grown in 10% FCS in RPMI medium. Cells were plated in 24 well plate, 5*10^6 cells/well and were differentiated to macrophages in the presence of 0.5 uM PMA (phorbol 12-myristate 13-acetate) for 24 hr. Media was replaced to contain LPS (10 ug/mL), 24 hr stimulation. ATP was added for 2 hours. Supernatants were collected and assayed by ELISA for the presence of IL-1β.

[9] = high dose (40%) group, trending also at lower doses
[10] = topical 2.5%, 5% ointment or 40% solution, 50-day treatment phase

Row | SMILES | CD206 levels versus vehicle-treated [1] | MHCII levels versus vehicle-treated [1] | CD44 and CD62L expression (shift from effector to memory cells) versus vehicle-treated ([2]; anti-CD3e/anti-CD28 stimulated splenocytes, 24 hours treatment) | percentage of live cells ([2]; female, BALB/c, mouse, 24 h) | average inflammation score ([3]; before the 18th day of treatment) | average inflammation score ([3]; by about the 15th day of treatment) | tumor volume [4] | tumor volume compared with untreated group ([5]; topical daily for 18 days, after day 11) | tumor growth ([5]; topical daily, C57Bl/6 mice, right ear, first 11 days) | IL-1β secretion ([6]; IFNγ then LPS, compound overnight, ELISA) | cell viability ([6]; even at high dosage) | CD3+ T cells in skin versus vehicle-treated [7, 9] | Langerin+ dendritic cells in skin versus vehicle-treated [7, 9] | mast cells in skin (toluidine blue) versus vehicle-treated [7, 10] | overall inflammation (H&E staining) versus vehicle-treated [7, 10] | F4/80 general staining for macrophages ([7]; topical, 50-day treatment phase, data not shown) | IL-1β secretion [8] | percentage of live cells ([2]; stimulated splenocytes, 24 hours treatment, ghost dye)
1 | CC/C=C\CC1C(=O)CCC1CC(=O)Oc1cccc2cccnc12 (stereo not drawn) [Formula C] | lower CD206 levels | higher MHCII levels | higher CD44 and higher CD62L expression | Neither Formula C nor 2-DG treatment significantly affected the percentage of live cells | over 3 | about 3 | decreased tumor volume | significantly lower than the tumor volume in the untreated group | no tumor growth for 11 days | dose-dependently elicited IL-1β secretion | little effect on cell viability | statistically-significant increase | statistically-significant increase | statistically significant, dose-related increase | without apparent difference | no change | induced IL-1β secretion | 
2 | O=CC[C@@H](O)[C@H](O)[C@H](O)CO [Formula 2-DG, 2-deoxyglucose, reference compound] |  |  |  |  |  |  |  |  |  |  |  |  |  |  |  |  |  | Neither Formula C nor 2-DG treatment significantly affected the percentage of live cells
